Here are results for one compound from ChEMBL document CHEMBL4339206, “Specific stabilization of DNA G-quadruplex structures with a chemically modified complementary probe” (Bioorg Med Chem, 2019).

SMILES strings stand for the structures. Activity calls are given as the source filed them. The rule behind the calls is not given here.

Common to all, as to format: nucleic-acid assay
Experiment [1] concerns Quadruplex DNA. In words: Binding affinity to HT4-2-Mut3 template G-quadruplex DNA (unknown origin) assessed as inhibition of polymerase progression at 2nt separation site at 20 to 100 uM using FAM-lablled primer P18 and dNTPs measured after 30 mins by phosphorimaging based taq polymerase stop assay.
In experiment [2] the test system is Quadruplex DNA. In words: Binding affinity to HT4-2 template G-quadruplex DNA (unknown origin) assessed as primer extension stopped right before TTAGGG-repeating at 20 to 100 uM using FAM-lablled primer P18 and dNTPs measured after 30 mins in presence of marker 2 by phosphorimaging based taq polymerase stop assay.
The test system of experiment [3] is Quadruplex DNA. In words: Binding affinity to HT4-2-Mut1 template G-quadruplex DNA (unknown origin) assessed as inhibition of polymerase progression at 2nt separation site at 20 to 100 uM using FAM-lablled primer P18 and dNTPs measured after 30 mins by phosphorimaging based taq polymerase stop assay.
For experiment [4], the system named is Quadruplex DNA. Nature of the experiment: Binding affinity to HT4-2 template G-quadruplex DNA (unknown origin) assessed as inhibition of polymerase progression at 2nt separation site at 20 to 100 uM using FAM-lablled primer P18 and dNTPs measured after 30 mins by phosphorimaging based taq polymerase stop assay.
For experiment [5], the system named is Quadruplex DNA. In words: Binding affinity to HT4-2-Mut2 template G-quadruplex DNA (unknown origin) assessed as inhibition of polymerase progression at 2nt separation site at 20 to 100 uM using FAM-lablled primer P18 and dNTPs measured after 30 mins by phosphorimaging based taq polymerase stop assay.
Experiment [6] concerns Quadruplex DNA. In words: Binding affinity to HT G-quadruplex DNA (unknown origin) measured after 5 mins by UV-visible absorption titration method.
Experiment [7] has as its system Quadruplex DNA. In words: Binding affinity to HT G-quadruplex DNA (unknown origin) assessed as stabilization of parallel G-quadruplex structure at 10 to 70 uM by CD spectroscopic method.
Experiment [8] deals with Quadruplex DNA. Nature of the experiment: Binding affinity to HT4-2 template G-quadruplex DNA (unknown origin) at 55 degC.

On to `[N-]=[N+]=NCCCC[N+]1(CCOc2ccc(/N=N/c3ccc(OCC[N+]4(CCCCN=[N+]=[N-])CCCCC4)cc3)cc2)CCCCC1`, for which the inhibition result in experiment [1], in experiment [3] and in experiment [5] was “inactive” in each case. For the same compound, the outcome in experiment [2] and in experiment [7] was Active. Further, the inhibition entry in experiment [4] was “Active”. Also, the K in experiment [6] came out at 2.1 ×10⁵ /M. Besides, the outcome in experiment [8] was inactive.
